One assay concerns Staphylococcus aureus. Kind of assay: Antimicrobial activity against Staphylococcus aureus. In kind it is functional, organism-based.
Another assay deals with Escherichia coli. In words: Antimicrobial activity against Escherichia coli. In kind it is functional, organism-based.

The source made the active and inactive calls. The calls are words filed in the database; no cut-off is given here.

As to `Cc1cc2c(cc1O)C=C1C=CCC(C)(C)[C@@H]1CC2=O`, the result in the assay on Staphylococcus aureus and in the assay on Escherichia coli was Active.
